Consider five compounds from US20160194380A1, “POTENT INHIBITORS OF HUMAN MATRIPTASE DERIVED FROM MCOTI-II VARIANTS” (MERCK PATENT GMBH, priority 2013, published 2016).

Where a SMILES comes first, the peptide text is derived from it. Bridges are numbered along the chain shown (N, C = ends).

Assay [1] addresses T1, Bovine pancreatic trypsin (Bos taurus, UniProt P00760).
T1 construct: purchased Sigma-Aldrich; host or cells: bovine pancreas
T1 sequence (P00760 24-246): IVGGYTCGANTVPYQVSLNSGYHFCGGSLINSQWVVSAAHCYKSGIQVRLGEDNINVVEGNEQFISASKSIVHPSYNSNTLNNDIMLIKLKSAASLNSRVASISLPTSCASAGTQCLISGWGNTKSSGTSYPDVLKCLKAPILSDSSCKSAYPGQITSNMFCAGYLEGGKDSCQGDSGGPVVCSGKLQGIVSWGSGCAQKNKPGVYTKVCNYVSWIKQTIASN
Kind of assay: Protease inhibition assay, trypsin. It is filed as biochemical. The settings on record: substrate-independent inhibition constant. On the procedure:
(§1) D: Biol. Crystallogr., 69(2013), 114-120; Reinwarth, ChemBioChem, 14(2013), 137-146; Boy, Mol. Imaging Biol. 12(2010), 377-385] Measurements were carried out in triplicates using a Tecan Genios ELISA reader.

In assay [2] the target is T2, Human matriptase-1 (Homo sapiens, UniProt Q9Y5Y6).
T2 construct: made in house
T2 sequence (Q9Y5Y6 615-855 limits assumed): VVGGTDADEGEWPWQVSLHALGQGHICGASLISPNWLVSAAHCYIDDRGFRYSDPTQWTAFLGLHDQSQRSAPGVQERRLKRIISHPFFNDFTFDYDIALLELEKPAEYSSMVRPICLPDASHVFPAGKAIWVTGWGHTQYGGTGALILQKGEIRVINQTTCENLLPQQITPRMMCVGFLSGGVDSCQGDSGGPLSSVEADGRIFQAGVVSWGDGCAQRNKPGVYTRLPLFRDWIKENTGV
Kind of assay: Protease inhibition assay, matriptase-1. It is filed as biochemical. The settings on record: substrate-independent inhibition constant. On the procedure:
as §1

The test system of assay [3] is Human matriptase-1. Briefly: Protease inhibition assay, matriptase-1. It is filed as biochemical. The settings on record: matriptase-1 versus trypsin. On the procedure:
as §1

In assay [4] the test system is pro-uPA activation by matriptase-1 on human prostate carcinoma cancer cells (PC-3). Kind of assay: Cell inhibition assay: inhibition of pro-uPA activation on PC-3 cells. In kind it is cell-based. The settings on record: overnight incubation, read-out: IC50 (uPA substrate turnover, indirect determination). On the procedure: Urokinase-type plasminogen activator (uPA) causes the degradation of the extracellular matrix and plays a critical role in tumor invasion and metastasis.
Human prostate cancer cells (PC-3, Merck KGaA) were cultured in DMEM medium with 10% FCS at 37° C. and 5% CO2, washed with cation-free PBS and harvested by scraping. In the following 1×10^5 cells were incubated in presence of 250 μM Bz-β-Ala-Gly-Arg-pNA.AcOH (American Diagnostica) and the inhibitor of interest in defined dilutions overnight. Product formation was monitored at 405 nm before and after incubation in a microplate reader. IC50 was calculated by non-linear regression using SigmaPlot 11.

In the next assay the target is T3, matriptase-1 (Homo sapiens, UniProt Q9Y5Y6).
T3 sequence (Q9Y5Y6 1-855): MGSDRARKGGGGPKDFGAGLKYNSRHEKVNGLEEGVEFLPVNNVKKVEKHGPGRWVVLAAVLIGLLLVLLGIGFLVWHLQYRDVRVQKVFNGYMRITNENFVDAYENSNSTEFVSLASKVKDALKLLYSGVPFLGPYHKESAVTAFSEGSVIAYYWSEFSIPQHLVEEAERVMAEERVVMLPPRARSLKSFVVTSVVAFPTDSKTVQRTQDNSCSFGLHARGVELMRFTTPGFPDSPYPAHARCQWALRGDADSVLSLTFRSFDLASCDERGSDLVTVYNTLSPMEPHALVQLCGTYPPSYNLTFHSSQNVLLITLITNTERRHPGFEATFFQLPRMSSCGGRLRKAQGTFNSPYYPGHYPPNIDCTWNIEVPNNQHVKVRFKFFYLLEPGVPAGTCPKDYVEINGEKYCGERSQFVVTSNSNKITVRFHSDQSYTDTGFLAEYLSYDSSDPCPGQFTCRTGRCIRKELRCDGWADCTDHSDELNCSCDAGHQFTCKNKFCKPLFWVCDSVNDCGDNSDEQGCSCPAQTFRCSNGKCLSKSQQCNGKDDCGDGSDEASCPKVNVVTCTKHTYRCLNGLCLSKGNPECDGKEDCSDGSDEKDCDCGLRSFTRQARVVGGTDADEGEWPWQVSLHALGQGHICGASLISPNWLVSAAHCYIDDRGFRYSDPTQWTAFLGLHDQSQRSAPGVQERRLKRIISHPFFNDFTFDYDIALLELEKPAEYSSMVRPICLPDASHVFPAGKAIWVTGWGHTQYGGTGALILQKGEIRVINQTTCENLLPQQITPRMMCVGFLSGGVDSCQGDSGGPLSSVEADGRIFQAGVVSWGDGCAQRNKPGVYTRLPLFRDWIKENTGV
The settings on record: literature; cited from earlier work.

Take `CC[C@H](C)[C@@H]1NC(=O)[C@@H]2CSSC[C@H](NC(=O)[C@@H](NC(=O)CNC(=O)[C@@H](N)CCCCN)C(C)C)C(=O)N3CCC[C@H]3C(=O)N[C@@H](CCCCN)C(=O)N[C@@H](C(C)C)C(=O)N[C@@H](CC(C)C)C(=O)N[C@@H](CCCNC(=N)N)C(=O)N[C@@H](CCCCN)C(=O)N[C@H]3CSSC[C@H](NC1=O)C(=O)N[C@@H](CCCNC(=N)N)C(=O)N[C@@H](C)C(=O)N[C@@H](CC(N)=O)C(=O)NCC(=O)N[C@@H](Cc1ccc(O)cc1)C(=O)N[C@H](C(=O)NCC(N)=O)CSSC[C@H](NC(=O)[C@H](CC(=O)O)NC(=O)[C@H](CO)NC(=O)[C@H](CC(=O)O)NC(=O)[C@H](CCCCN)NC(=O)[C@H](CCCNC(=N)N)NC3=O)C(=O)N1CCC[C@H]1C(=O)NCC(=O)N[C@@H](C)C(=O)N2` [Inhibitor 6] (H-KGVCPKVLRKCRKDSDCPGACICRANGYCG-NH2; disulfide 4-21, 11-23, 17-29): the results for the Ki (in assay [1]; at Human matriptase-1 [2]) were 22.3 ± 3 nM and 7.8 ± 1 nM, respectively.

For the compound `CC[C@H](C)[C@@H]1NC(=O)[C@@H]2CSSC[C@H](NC(=O)[C@H](CCCNC(=N)N)NC(=O)[C@H](CCCNC(=N)N)NC(=O)[C@@H](N)CC(N)=O)C(=O)N3CCC[C@H]3C(=O)N[C@@H](CCCCN)C(=O)N[C@@H](C(C)C)C(=O)N[C@@H](CC(C)C)C(=O)N[C@@H](CCCCN)C(=O)N[C@@H](C)C(=O)N[C@H]3CSSC[C@H](NC1=O)C(=O)N[C@@H](CCCNC(=N)N)C(=O)NCC(=O)N[C@@H](CC(N)=O)C(=O)NCC(=O)N[C@@H](Cc1ccc(O)cc1)C(=O)N[C@H](C(=O)NCC(N)=O)CSSC[C@H](NC(=O)[C@H](CC(=O)O)NC(=O)[C@H](CO)NC(=O)[C@H](CC(=O)O)NC(=O)[C@H](CCCNC(=N)N)NC(=O)[C@H](CCCNC(=N)N)NC3=O)C(=O)N1CCC[C@H]1C(=O)NCC(=O)N[C@@H](C)C(=O)N2` [Inhibitor 5], the Ki (in general, a measure of affinity in units of concentration, obtained from inhibition or displacement) in assay [1] is 19.2 ± 2.8 nM; at Human matriptase-1 [2] it was 3.3 ± 0.4 nM.

For `CC[C@H](C)[C@@H]1NC(=O)[C@@H]2CSSC[C@H](NC(=O)[C@@H](NC(=O)CNC(=O)[C@@H](N)Cc3c[nH]c4ccccc34)C(C)C)C(=O)N3CCC[C@H]3C(=O)N[C@@H](CCCCN)C(=O)N[C@@H](C(C)C)C(=O)N[C@@H](CC(C)C)C(=O)N[C@@H](CCCNC(=N)N)C(=O)N[C@@H](CC(N)=O)C(=O)N[C@H]3CSSC[C@H](NC1=O)C(=O)N[C@@H](CC(C)C)C(=O)NCC(=O)N[C@@H](CC(N)=O)C(=O)NCC(=O)N[C@@H](Cc1ccc(O)cc1)C(=O)N[C@H](C(=O)NCC(N)=O)CSSC[C@H](NC(=O)[C@H](CC(=O)O)NC(=O)[C@H](CO)NC(=O)[C@H](CC(=O)O)NC(=O)[C@H](CCCNC(=N)N)NC(=O)[C@H](CCCNC(=N)N)NC3=O)C(=O)N1CCC[C@H]1C(=O)NCC(=O)N[C@@H](C)C(=O)N2` [Inhibitor 7] (H-WGVCPKVLRNCRRDSDCPGACICLGNGYCG-NH2; disulfide 4-21, 11-23, 17-29; N-terminus assumed), the Ki in assay [1] was found to be 35.8 ± 4.7 nM; at Human matriptase-1 [2], 0.83 ± 0.14 nM. Also, the “Inhibitory activity for matriptase-1 relative to trypsin” value in the assay with Human matriptase-1 [3] is “approximately fortyfold”. In assay [4], the IC50 (as a rule, the concentration at which inhibition is half-maximal) stood at 213 nM.

Consider H-R-Q-A-R-Bt, for which, at matriptase-1, the “Ki (matriptase-1), previously reported” value was “picomolar” and the “Selectivity, previously reported” value is on record as “low selectivity”.

On to `CC[C@H](C)[C@H](N)C(=O)NCC(=O)N[C@H](C(=O)N[C@H]1CSSC[C@@H]2NC(=O)[C@H](C)NC(=O)CNC(=O)[C@@H]3CCCN3C(=O)[C@@H]3CSSC[C@@H](C(=O)NCC(N)=O)NC(=O)[C@H](Cc4ccc(O)cc4)NC(=O)CNC(=O)[C@H](CC(N)=O)NC(=O)CNC(=O)[C@H](CCCNC(=N)N)NC(=O)[C@H](CSSC[C@H](NC(=O)[C@H](C)NC(=O)[C@H](CCCNC(=N)N)NC(=O)[C@H](CC(C)C)NC(=O)[C@H](CC(C)C)NC(=O)[C@H](CCCCN)NC(=O)[C@@H]4CCCN4C1=O)C(=O)N[C@@H](CCCNC(=N)N)C(=O)N[C@@H](CCCNC(=N)N)C(=O)N[C@@H](CC(=O)O)C(=O)N[C@@H](CO)C(=O)N[C@@H](CC(=O)O)C(=O)N3)NC(=O)[C@H]([C@@H](C)CC)NC2=O)C(C)C` [Inhibitor 4] (H-IGVCPKLLRACRRDSDCPGACICRGNGYCG-NH2; disulfide 4-21, 11-23, 17-29), for which the Ki was found to be 31.7 ± 4.3 nM in assay [1] and 4.4 ± 0.6 nM on Human matriptase-1 [2].
